Test results: ChEMBL document CHEMBL3734684, “Identification and optimisation of a series of tetrahydrobenzotriazoles as metabotropic glutamate receptor 5-selective positive allosteric modulators that improve performance in a preclinical model of cognition” (Bioorg Med Chem Lett, 2015)
Converted amounts (≈) assume the structure as drawn. The source made the active and inactive calls. The rule behind the calls is not given here.

Assays:
[1] = target: T1, Metabotropic glutamate receptor 5 (Homo sapiens, UniProt P41594); experiment: Positive allosteric modification of human recombinant mGlu5 receptor expressed in U2OS cells assessed as Ca2+ flux upto 25 uM relative to glutamate; assay type: functional, cell-based
Target sequence in this assay (P41594 21-1212 limits assumed): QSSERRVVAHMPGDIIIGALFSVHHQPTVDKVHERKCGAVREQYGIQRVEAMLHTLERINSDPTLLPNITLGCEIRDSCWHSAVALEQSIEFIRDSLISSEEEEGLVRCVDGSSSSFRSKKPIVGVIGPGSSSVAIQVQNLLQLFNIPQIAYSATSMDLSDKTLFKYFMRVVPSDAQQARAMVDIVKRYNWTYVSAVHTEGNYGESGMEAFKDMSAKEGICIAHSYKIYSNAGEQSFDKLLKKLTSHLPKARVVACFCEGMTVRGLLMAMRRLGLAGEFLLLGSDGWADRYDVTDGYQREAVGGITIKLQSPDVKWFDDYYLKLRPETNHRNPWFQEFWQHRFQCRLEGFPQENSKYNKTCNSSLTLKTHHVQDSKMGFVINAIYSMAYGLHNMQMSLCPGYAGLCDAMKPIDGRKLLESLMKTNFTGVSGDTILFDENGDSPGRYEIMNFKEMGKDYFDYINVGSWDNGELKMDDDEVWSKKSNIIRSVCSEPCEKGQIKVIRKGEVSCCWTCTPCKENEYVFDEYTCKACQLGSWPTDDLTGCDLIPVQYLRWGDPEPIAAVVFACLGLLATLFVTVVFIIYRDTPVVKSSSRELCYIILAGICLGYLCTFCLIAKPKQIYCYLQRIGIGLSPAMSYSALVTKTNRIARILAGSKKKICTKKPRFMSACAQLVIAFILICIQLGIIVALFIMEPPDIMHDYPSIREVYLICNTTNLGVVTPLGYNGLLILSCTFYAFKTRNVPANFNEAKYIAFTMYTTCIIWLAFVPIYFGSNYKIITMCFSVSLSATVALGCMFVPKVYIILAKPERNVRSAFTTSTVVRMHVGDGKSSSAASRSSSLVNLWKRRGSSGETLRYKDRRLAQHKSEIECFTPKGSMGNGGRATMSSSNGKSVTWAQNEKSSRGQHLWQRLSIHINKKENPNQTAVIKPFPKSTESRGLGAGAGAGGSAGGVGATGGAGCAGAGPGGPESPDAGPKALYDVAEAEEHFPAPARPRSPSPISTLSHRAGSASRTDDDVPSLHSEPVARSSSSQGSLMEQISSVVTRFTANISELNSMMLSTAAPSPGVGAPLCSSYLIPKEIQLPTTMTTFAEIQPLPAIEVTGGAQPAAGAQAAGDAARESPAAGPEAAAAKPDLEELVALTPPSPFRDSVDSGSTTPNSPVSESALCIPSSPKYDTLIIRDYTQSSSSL

[2] = target: T1, Metabotropic glutamate receptor 5; experiment: Positive allosteric modification of human recombinant mGlu5 receptor expressed in U2OS cells assessed as potentiation of glutamate-induced Ca2+ flux in presence of EC20 glutamate; assay type: functional, cell-based
Target sequence in this assay (P41594 whole entry): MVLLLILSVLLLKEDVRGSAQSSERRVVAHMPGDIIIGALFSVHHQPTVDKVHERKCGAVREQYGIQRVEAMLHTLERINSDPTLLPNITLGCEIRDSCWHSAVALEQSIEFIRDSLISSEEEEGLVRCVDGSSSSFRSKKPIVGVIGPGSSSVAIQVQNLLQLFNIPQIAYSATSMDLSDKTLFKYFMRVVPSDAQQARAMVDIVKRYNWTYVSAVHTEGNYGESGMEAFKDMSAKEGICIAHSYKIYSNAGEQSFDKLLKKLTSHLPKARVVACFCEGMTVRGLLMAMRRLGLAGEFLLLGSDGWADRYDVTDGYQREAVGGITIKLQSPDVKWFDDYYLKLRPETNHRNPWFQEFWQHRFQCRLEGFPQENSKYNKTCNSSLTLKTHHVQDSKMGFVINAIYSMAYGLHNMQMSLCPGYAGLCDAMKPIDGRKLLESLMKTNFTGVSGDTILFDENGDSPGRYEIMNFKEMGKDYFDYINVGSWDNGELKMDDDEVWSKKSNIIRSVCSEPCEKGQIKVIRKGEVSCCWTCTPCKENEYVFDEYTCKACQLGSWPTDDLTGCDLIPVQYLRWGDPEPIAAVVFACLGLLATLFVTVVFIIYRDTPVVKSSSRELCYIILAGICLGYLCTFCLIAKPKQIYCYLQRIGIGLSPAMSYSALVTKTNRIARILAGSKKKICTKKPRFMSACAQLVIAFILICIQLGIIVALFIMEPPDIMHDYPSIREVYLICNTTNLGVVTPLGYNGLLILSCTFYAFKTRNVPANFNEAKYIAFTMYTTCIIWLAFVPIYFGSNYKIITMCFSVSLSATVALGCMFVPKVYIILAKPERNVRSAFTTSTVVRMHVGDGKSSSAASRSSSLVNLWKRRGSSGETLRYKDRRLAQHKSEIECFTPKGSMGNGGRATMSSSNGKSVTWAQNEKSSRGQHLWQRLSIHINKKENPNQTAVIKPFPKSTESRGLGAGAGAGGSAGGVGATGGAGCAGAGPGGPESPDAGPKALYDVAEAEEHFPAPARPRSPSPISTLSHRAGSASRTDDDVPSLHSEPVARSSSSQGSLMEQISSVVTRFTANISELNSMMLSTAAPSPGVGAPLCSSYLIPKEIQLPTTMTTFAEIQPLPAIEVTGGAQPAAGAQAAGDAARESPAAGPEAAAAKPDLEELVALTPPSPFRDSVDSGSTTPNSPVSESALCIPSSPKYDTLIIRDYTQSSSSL

Homo sapiens [3] = species on record: Homo sapiens; experiment: Negative allosteric modification of mGlu receptor (unknown origin)
MDCK [4] = experiment: Permeability from apical to basolateral side in MDCK cells at 1 uM; assay type: ADME, cell-based, Canis lupus familiaris; conditions: dog
[5] = Intrinsic clearance in human liver microsomes at 3 uM; assay type: ADME; conditions: read-out: CLH
[6] = Volume of distribution at steady state in Sprague-Dawley rat at 0.5 mg/kg, iv; assay type: ADME, organism-based; conditions: in vivo, read-out: Vdss
[7] = Brain to plasma ratio in Sprague-Dawley rat at 3 mg/kg, po; assay type: ADME, organism-based; conditions: brain and plasma, read-out: BPR
[8] = Clearance in Sprague-Dawley rat at 0.5 mg/kg, iv; assay type: ADME, organism-based; conditions: in vivo
[9] = Intrinsic clearance in rat liver microsomes at 3 uM; assay type: ADME; conditions: read-out: CLH
[10] = target: Voltage-gated inwardly rectifying potassium channel KCNH2 (Homo sapiens, UniProt Q12809); experiment: Inhibition of human ERG
Sequence of Voltage-gated inwardly rectifying potassium channel KCNH2 (Q12809 whole entry): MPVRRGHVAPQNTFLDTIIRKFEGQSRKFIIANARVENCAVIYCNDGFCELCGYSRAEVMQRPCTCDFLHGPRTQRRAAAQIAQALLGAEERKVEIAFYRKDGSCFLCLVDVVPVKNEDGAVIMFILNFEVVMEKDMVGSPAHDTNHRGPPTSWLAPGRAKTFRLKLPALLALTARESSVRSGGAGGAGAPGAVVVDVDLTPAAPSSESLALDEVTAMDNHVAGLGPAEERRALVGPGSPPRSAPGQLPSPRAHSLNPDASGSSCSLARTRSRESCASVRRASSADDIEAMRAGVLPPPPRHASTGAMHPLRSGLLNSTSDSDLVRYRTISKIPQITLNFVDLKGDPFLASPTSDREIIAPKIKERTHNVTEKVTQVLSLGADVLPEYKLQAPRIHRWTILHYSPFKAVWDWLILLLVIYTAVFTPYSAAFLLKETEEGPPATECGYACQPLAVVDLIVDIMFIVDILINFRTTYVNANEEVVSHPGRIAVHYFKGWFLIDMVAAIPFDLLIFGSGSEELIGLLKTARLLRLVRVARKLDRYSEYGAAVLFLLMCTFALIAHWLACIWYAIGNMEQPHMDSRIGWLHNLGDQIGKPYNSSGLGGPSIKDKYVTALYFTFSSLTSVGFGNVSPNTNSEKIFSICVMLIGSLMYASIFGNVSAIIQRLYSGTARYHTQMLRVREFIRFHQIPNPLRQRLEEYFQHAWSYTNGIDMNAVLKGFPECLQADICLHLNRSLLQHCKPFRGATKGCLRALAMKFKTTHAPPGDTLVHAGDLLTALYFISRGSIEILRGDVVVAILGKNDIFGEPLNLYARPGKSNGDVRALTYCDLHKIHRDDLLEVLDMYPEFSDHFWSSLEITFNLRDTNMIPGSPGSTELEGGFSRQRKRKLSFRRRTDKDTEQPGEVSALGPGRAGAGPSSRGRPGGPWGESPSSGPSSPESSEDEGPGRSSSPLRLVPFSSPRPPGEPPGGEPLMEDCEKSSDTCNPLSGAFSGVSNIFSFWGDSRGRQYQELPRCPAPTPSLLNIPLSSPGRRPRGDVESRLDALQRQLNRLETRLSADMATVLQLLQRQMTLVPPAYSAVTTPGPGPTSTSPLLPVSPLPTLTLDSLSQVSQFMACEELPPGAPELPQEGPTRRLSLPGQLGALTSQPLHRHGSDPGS

[11] = Oral bioavailability in Sprague-Dawley rat at 3 mg/kg; assay type: ADME, organism-based; conditions: in vivo
Homo sapiens [12] = species on record: Homo sapiens; experiment: Agonist activity at mGlu receptor (unknown origin)
Rattus norvegicus = experiment: Cognitive enhancing effect in po dosed rat measured after 4 hrs by novel object recognition test; assay type: functional; conditions: for minimal effective dose: Rattus norvegicus, po, 4 h, read-out: MED
[13] = Fraction unbound in rat brain; assay type: ADME, tissue-based
[14] = Kinetic solubility of compound in phosphate buffer saline at pH 7.4; assay type: physicochemical; conditions: for solubility kinetic: phosphate buffered saline, read-out: Kinetic_solubility
[15] = Inhibition of CYP450 (unknown origin); assay type: ADME; conditions: human
[16] = Cmax in Sprague-Dawley rat plasma at 3 mg/kg, po; assay type: ADME, organism-based; parameters: dose 3 mg/kg, route oral
[17] = Half life in Sprague-Dawley rat at 3 mg/kg, po; assay type: ADME, organism-based; conditions: in vivo
MDCK [18] = experiment: Efflux ratio of permeability from apical to basolateral side to basolateral to apical side in MDCK cells; assay type: ADME, cell-based, Canis lupus familiaris; conditions: dog
[19] = Tmax in Sprague-Dawley rat at 3 mg/kg, po; assay type: ADME, organism-based; conditions: in vivo
[20] = target: Metabotropic glutamate receptor 5 (Rattus norvegicus) (UniProt P31424); experiment: Positive allosteric modification of mGlu5 receptor in rat cortical astrocytes assessed as maximal leftward shift in the EC50 of glutamate induced response upto 25 uM; assay type: cell-based
Sequence of Metabotropic glutamate receptor 5 (Rattus norvegicus) (P31424 21-1203 limits assumed): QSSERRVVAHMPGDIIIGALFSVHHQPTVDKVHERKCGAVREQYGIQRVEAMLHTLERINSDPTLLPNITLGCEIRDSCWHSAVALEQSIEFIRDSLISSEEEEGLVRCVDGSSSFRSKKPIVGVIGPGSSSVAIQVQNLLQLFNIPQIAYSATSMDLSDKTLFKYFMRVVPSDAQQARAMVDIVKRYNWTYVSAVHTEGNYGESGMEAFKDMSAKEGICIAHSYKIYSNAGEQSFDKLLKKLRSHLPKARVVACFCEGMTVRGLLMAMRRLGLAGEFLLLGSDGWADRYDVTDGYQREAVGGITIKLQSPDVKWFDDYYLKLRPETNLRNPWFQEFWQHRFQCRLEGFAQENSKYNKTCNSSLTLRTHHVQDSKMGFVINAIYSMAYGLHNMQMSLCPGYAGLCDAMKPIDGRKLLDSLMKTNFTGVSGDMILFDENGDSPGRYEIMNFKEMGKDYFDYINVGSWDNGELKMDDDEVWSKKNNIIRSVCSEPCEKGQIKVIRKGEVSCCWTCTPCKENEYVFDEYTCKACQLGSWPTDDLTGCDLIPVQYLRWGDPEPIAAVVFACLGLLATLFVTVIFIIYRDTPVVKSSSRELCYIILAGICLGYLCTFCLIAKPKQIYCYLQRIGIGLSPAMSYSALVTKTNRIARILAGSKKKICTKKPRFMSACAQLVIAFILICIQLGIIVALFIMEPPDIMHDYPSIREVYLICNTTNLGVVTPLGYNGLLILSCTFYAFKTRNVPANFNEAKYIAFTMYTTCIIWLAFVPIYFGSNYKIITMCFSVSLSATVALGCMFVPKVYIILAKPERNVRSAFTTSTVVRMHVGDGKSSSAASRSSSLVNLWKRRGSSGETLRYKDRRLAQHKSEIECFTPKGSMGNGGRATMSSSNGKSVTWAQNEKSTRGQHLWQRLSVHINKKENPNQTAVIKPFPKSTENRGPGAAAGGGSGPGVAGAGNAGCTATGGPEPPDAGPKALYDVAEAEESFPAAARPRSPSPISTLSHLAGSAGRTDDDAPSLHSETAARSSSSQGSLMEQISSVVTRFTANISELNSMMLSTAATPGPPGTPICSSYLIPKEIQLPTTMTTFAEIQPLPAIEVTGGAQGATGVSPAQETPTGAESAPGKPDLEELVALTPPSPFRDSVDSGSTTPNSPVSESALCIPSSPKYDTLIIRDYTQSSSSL

Homo sapiens [21] = species on record: Homo sapiens; experiment: Positive allosteric modification of mGlu receptor (unknown origin)
[22] = Clearance in Sprague-Dawley rat at 0.25 mg/kg, iv; assay type: ADME, organism-based; conditions: in vivo
[23] = Volume of distribution at steady state in Sprague-Dawley rat at 0.25 mg/kg, iv; assay type: ADME, organism-based; conditions: in vivo, read-out: Vdss

For `Cc1ccc(-c2noc(C3CCc4c(nnn4C(C)(C)C)C3)n2)cn1` (racemic), the %max [1] was 67% and the EC50 [2] was 1580 nM.
With `CC(C)Cc1noc(C2CCc3c(nnn3C(C)(C)C)C2)n1` (racemic) the %max [1] was 66% and the EC50 [2] was 1000 nM.
`Fc1ccc(-c2noc(C3CCc4c(nnn4-c4ccc(F)nc4)C3)n2)cc1` (stereo not given) showed an EC50 [2] of over 25100 nM.
`CC(C)(C)n1nnc2c1CCC(c1nc(N3CCOCC3)no1)C2` (racemic) gave a %max [1] of 29% and an EC50 [2] of 1260 nM.
In the case of `CC(C)(C)n1nnc2c1CCC(n1cnc(-c3ccc(F)cc3)n1)C2` (stereo not given), the Activity (Homo sapiens [3]) is reported as “inactive”, the permeability (MDCK [4]) is reported as 46 ×10⁻⁶ cm/s and the microsomal CLint at 3 µM [5] is reported as 4 µL/min/mg. It also gave a Vd [6] of 1.9 L/kg, a Kp [7] of 1.4 and a clearance [8] of 14 mL/min/kg. The microsomal CLint at 3 µM [9] was 20 µL/min/mg, the IC50 [10] was 6310 nM and the %max [1] was 80%. For the same molecule, the bioavailability [11] was 114%, the Activity (Homo sapiens [12]) was “inactive” and the EC50 [2] was 50.1 nM. It also gave a minimal effective dose (Rattus norvegicus) of 0.3 mg/kg, a fraction unbound [13] of 0.056 and a solubility kinetic [14] of over 100 µM. The “inhibition (INH)” value [15] was “Not Active”, the Cmax [16] was 1950 nM and the half-life [17] was 2.9 h. For the same molecule, the Ratio (MDCK [18]) was 0.8, the Tmax [19] was 2.7 h and the fold change (FC) [20] was 3. For the same molecule, the Activity (Homo sapiens [21]) was “inactive”.
`CC1(n2nnc3c2CCC(c2nc(-c4ccc(F)cc4)no2)C3)CCOCC1` (stereo not given) gave a %max [1] of 103%, an EC50 [2] of 10 nM and a fold change (FC) [20] of 7.
For `Fc1ccc(-c2noc(C3CCc4c(nnn4-c4ccc(F)cc4)C3)n2)cc1` (stereo not given), the %max [1] was 106%, the EC50 [2] was 15.8 nM and the fraction unbound [13] was 0.003. The Kinetic_solubility ([14]; buffer) was “Insoluble” and the fold change (FC) [20] was 3.
Molecule `Fc1ccc(-c2noc(C3CCc4c(nnn4C4CCCC4)C3)n2)cc1` (stereo in doubt; 9) [listing 1 of 2 here] has a %max [1] of 103% and a fold change (FC) [20] of 10.
For `CC(C)(C)n1nnc2c1CCC(c1nc(-c3ccc(F)cc3)no1)C2` (stereo not given), the Activity (Homo sapiens [3]) was “inactive”, the permeability (MDCK [4]) was 42 ×10⁻⁶ cm/s and the microsomal CLint at 3 µM [5] was 18 µL/min/mg. It also gave a Vd [6] of 4.3 L/kg, a Kp [7] of 2 and a clearance [8] of 11 mL/min/kg. The microsomal CLint at 3 µM [9] was 20 µL/min/mg, the %max [1] was 98% and the bioavailability [11] was 46%. For the same molecule, the Activity (Homo sapiens [12]) was “inactive”, the EC50 [2] was 5.01 nM and the minimal effective dose (Rattus norvegicus) was 0.3 mg/kg. For the same molecule, the fraction unbound [13] was 0.013, the solubility kinetic [14] was 6 µM (≈ 2.05 µg/mL) and the “inhibition (INH)” value [15] was “Not Active”. For the same molecule, the Cmax [16] was 438 nM, the half-life [17] was 6.5 h and the Ratio (MDCK [18]) was 0.8. For the same molecule, the Tmax [19] was 4 h, the fold change (FC) [20] was 4 and the Activity (Homo sapiens [21]) was “inactive”.
Molecule `CC(C)(C)n1nnc2c1CCC(c1nc(Cc3ccc(F)cc3)no1)C2` (stereo not given) has a microsomal CLint at 3 µM [9] of 120 µL/min/mg, a %max [1] of 77% and an EC50 [2] of 20 nM. For the same molecule, the fold change (FC) [20] was 7.
In the case of `CN(C)c1ccc(-c2noc(C3CCc4c(nnn4C(C)(C)C)C3)n2)cc1` (racemic), the %max [1] is reported as 68% and the EC50 [2] is reported as 1000 nM.
Molecule `CC(C)(C)n1nnc2c1CCC(c1nnc(-c3ccc(F)cc3)o1)C2` (racemic) has a %max [1] of 53% and an EC50 [2] of 3160 nM.
For `CC(C)(C)n1nnc2c1CCC(c1nc(C3CCCCC3)no1)C2` (racemic), the %max [1] was 91% and the EC50 [2] was 200 nM.
With `CC(C)(C)Cn1nnc2c1CCC(c1nc(-c3ccc(F)cc3)no1)C2` (stereo not given) the %max [1] was 108%, the EC50 [2] was 31.6 nM and the fold change (FC) [20] was 8.
In the case of `Fc1ccc(-c2noc(C3CCc4c(nnn4C4CCCC4)C3)n2)cc1` (stereo in doubt; 9) [listing 2 of 2 here], the microsomal CLint at 3 µM [9] is reported as 146 µL/min/mg and the EC50 [2] is reported as 31.6 nM.
Work on `Fc1ccc(-c2noc(C3CCc4c(nnn4C4CCCC4)C3)n2)cc1` (stereo in doubt; 10) [listing 1 of 2 here] yielded a %max [1] of 78% and a fold change (FC) [20] of 4.
In the case of `CC(C)n1nnc2c1CCC(c1nc(-c3ccc(F)cc3)no1)C2` (racemic), the %max [1] is reported as 98% and the EC50 [2] is reported as 398 nM.
Molecule `CC(C)(C)n1nnc2c1CCC(c1noc(-c3ccc(F)cc3)n1)C2` (stereo not given) has a %max [1] of 85%, an EC50 [2] of 5.01 nM and a fold change (FC) [20] of 5.
In the case of `Fc1ccc(-c2noc(C3CCc4c(nnn4C4CCOC4)C3)n2)cc1` (stereo not given), the microsomal CLint at 3 µM [9] is reported as 22 µL/min/mg, the %max [1] is reported as 96% and the EC50 [2] is reported as 398 nM. It also gave a fold change (FC) [20] of 4.
`CC(C)(C)n1nnc2c1CCC(c1nc(-c3ccc(C#N)cc3)no1)C2` (stereo not given) gave a %max [1] of 87%, an EC50 [2] of 79.4 nM and a fold change (FC) [20] of 6.
For `CC(C)(C#N)n1nnc2c1CCC(c1nc(-c3ccc(F)cc3)no1)C2` (stereo not given), the Activity (Homo sapiens [3]) was “inactive”, the permeability (MDCK [4]) was 43 ×10⁻⁶ cm/s and the microsomal CLint at 3 µM [5] was 9 µL/min/mg. For the same molecule, the Kp [7] was 3.2, the microsomal CLint at 3 µM [9] was 6 µL/min/mg and the %max [1] was 71%. For the same molecule, the bioavailability [11] was 45%, the Activity (Homo sapiens [12]) was “inactive” and the EC50 [2] was 15.8 nM. The LED (Rattus norvegicus) was 0.03 mg/kg, the fraction unbound [13] was 0.015 and the solubility kinetic [14] was 5.6 µM (≈ 1.97 µg/mL). For the same molecule, the “inhibition (INH)” value [15] was “Not Active”, the Cmax [16] was 891 nM and the half-life [17] was 7 h. It also gave a clearance [22] of 4 mL/min/kg, a Ratio (MDCK [18]) of 0.6 and a Tmax [19] of 6 h. For the same molecule, the Vd [23] was 2.5 L/kg, the fold change (FC) [20] was 3 and the Activity (Homo sapiens [21]) was “inactive”.
Work on `Fc1ccc(-c2nc(-c3ccc4c(c3)nnn4C3CCCC3)no2)cc1` yielded a %max [1] of 51% and an EC50 [2] of 398 nM.
For `Fc1ccc(-c2noc(C3CCc4c(nnn4C4CCCC4)C3)n2)cc1` (stereo in doubt; 10) [listing 2 of 2 here], the EC50 [2] was 398 nM.
In the case of `CN1CCC(n2nnc3c2CCC(c2nc(-c4ccc(F)cc4)no2)C3)CC1` (racemic), the %max [1] is reported as 91% and the EC50 [2] is reported as 3980 nM.
